Measured values taken from US4264498A, “Process for the preparation of 1,3-disubstituted-2-azetidinones from triazines” (Fujisawa Pharmaceutical Co., Ltd., priority 1976, dated 1981).
Values after ≈ are worked out from the molar mass of the structure shown.

Experiments:
Assay type in all cases: cell-based
Staphylococcus aureus = experiment: antimicrobial activity (MIC) against Staphylococcus aureus
Pseudomonas aeruginosa = experiment: antimicrobial activity (MIC) against Pseudomonas aeruginosa
Bacillus subtilis = experiment: antimicrobial activity (MIC) against Bacillus subtilis

Row | Structure (SMILES) | MIC (Staphylococcus aureus) [µg/mL] | MIC (Pseudomonas aeruginosa) [µg/mL] | other results
1 | O=C(NC1CN(C(Cc2ccc(O)cc2)C(=O)O)C1=O)C(=NO)c1ccccc1 (centres unmarked) [Compound F, 2-[3-(2-phenyl-2-hydroxyiminoacetamido)-2-oxo-1-azetidinyl]-3-(4-hydroxyphenyl)propionic acid] | 250 (≈ 629 µM) |  | 
2 | O=C(NC1CN(C(C(=O)O)c2ccco2)C1=O)C(=NO)c1ccccc1 (centres unmarked) [Compound H, 2-[3-(2-phenyl-2-hydroxyiminoacetamido)-2-oxo-1-azetidinyl]-2-(2-furyl)acetic acid] |  | 60 (≈ 168 µM) | 
3 | NC(CCOc1ccc(C(=NO)C(=O)NC2CN(C(C(=O)O)c3ccccc3)C2=O)cc1)C(=O)O (centres unmarked) [Compound B, 2-[3-[2-{4-(3-amino-3-carboxypropoxy)phenyl}-2-hydroxyiminoacetamido]-2-oxo-1-azetidinyl]-2-phenylacetic acid] |  | 4 (≈ 8.26 µM) | 
4 | NC(CCOc1ccc(C(=NO)C(=O)NC2CN(C(C(=O)O)c3ccc(O)cc3)C2=O)cc1)C(=O)O (centres unmarked) [Compound C, 2-[3-[2-{4-(3-amino-3-carboxypropoxy)phenyl}-2-hydroxyiminoacetamido]-2-oxo-1-azetidinyl]-2-(4-hydroxyphenyl)acetic acid] |  | 2.5 (≈ 5 µM) | 
5 | O=C(NC1CN(C(C(=O)O)c2cccc3ccccc23)C1=O)C(=NO)c1ccccc1 (centres unmarked) [Compound E, 2-[3-(2-phenyl-2-hydroxyiminoacetamido)-2-oxo-1-azetidinyl]-2-(1-naphthyl)acetic acid] | 60 (≈ 144 µM) |  | 
6 | NC(CCOc1ccc(C(=NO)C(=O)NC2CN(C(C(=O)O)c3cccs3)C2=O)cc1)C(=O)O (centres unmarked) [Compound G] |  | 4 (≈ 8.16 µM) | 
7 | O=C(NC1CN(C(CSc2ccccc2)C(=O)O)C1=O)C(=NO)c1ccccc1 (centres unmarked) [Compound D, 2-[3-(2-phenyl-2-hydroxyiminoacetamido)-2-oxo-1-azetidinyl]-3-phenylthiopropionic acid] | 250 (≈ 605 µM) |  | 
8 | O=C(O)CN1CC(NC(=O)Cc2ccccc2)C1=O (centres unmarked) [Compound A, 2-(3-phenylacetamido-2-oxo-1-azetidinyl)acetic acid] |  |  | MIC (Bacillus subtilis): 250 µg/mL (≈ 953 µM)
